Reference: US20090325923A1, “NEW METHOD FOR THE TREATMENT OF INFLAMMATORY DISEASES” (TOPOTARGET SWITZERLAND SA, priority 2006, published 2009)

How the values were obtained:
[1] = system: human peripheral blood mononuclear cells (PBMC); test: LPS-stimulated TNF and IL-6 secretion by ELISA in PBMC; assay type: cell-based; conditions: overnight increasing doses of FK866, LPS 6 h
Protocol: (§1) Human monocytic cell line THP-1, human peripheral blood mononuclear cells (PBMC), human monocyte-derived dendritic cells, or mouse peritoneal macrophages were isolated and cultured overnight with increasing doses of FK866, and then stimulated with LPS for 6 h. The culture supernatants were tested for TNF and IL-6 content by ELISA
as §1, with “This example describes the inhibition of pro-inflammatory cytokines production by the competitive small molecular weight compound inhibitor of NMPRT, ((E)-N-[4-(1-benzoylpiperidin-4-yl)butyl]-3-(pyridin-3-yl)acrylamide, designated FK866). Human” for “Human”, “ELISA.” for “ELISA”

[2] = system: human monocyte-derived dendritic cells; test: LPS-stimulated cytokine secretion by ELISA in dendritic cells; assay type: cell-based
Protocol: as §1
Human dendritic cells (mean and SD from 5 different donors) were incubated with 20 nM FK866 before stimulation with LPS or LPS+IFNγ. Pro-inflammatory cytokine levels in the supernatant were measured by ELISA after 16 h of culture.
as §1, with “This example describes the inhibition of pro-inflammatory cytokines production by the competitive small molecular weight compound inhibitor of NMPRT, ((E)-N-[4-(1-benzoylpiperidin-4-yl)butyl]-3-(pyridin-3-yl)acrylamide, designated FK866). Human” for “Human”, “ELISA.” for “ELISA”
This example describes the inhibition of other pro-inflammatory cytokine production, in addition to TNFα, IL-1β and IL-6, by FK866. Human dendritic cells from 5 different donors were cultured with FK866 before stimulation with LPS or LPS+IFNγ. The culture supernatants were tested for TNFα, IL-12 (p40 and p70), and IL-23 content by ELISA.

RAW264.7 cell line [3] = test: TNFα mRNA levels by RT-PCR in RAW264.7 cells; assay type: cell-based, mouse; conditions: RAW 264.7, LPS in the presence of FK866, RT-PCR
Protocol: The murine RAW264.7 cell line was stimulated with LPS in the presence of FK866. TNF protein concentrations were determined by ELISA (above panel) while mRNA levels were determined by RT-PCR (below panel).
This example illustrates that FK866 inhibits TNFα secretion at a posttranscriptional level. The murine RAW 264.7 cell line was incubated in the presence of graded doses of FK866, stimulated with microbial products, and levels of TNFα released in the supernatant evaluated by ELISA.

RAW264.7 cell line [4] = test: Intracellular NAD by enzymatic assay in RAW264.7 cells; assay type: cell-based, mouse; conditions: RAW264.7, overnight increasing doses of FK866, LPS 2 h
Protocol: (§2) (A) The mouse macrophage cell line RAW264.7 was cultured overnight with increasing doses of FK866, and then stimulated with LPS for 2 h. The culture supernatants were tested for TNF content by ELISA and intracellular NAD levels were measured by an enzymatic assay.
(§3) (B) RAW264.7 cells were cultured overnight in the presence of FK866 and the intracellular pool of NAD was restored by co-incubation of the cells with nicotinic acid (NA). Cells were then stimulated with LPS for 2 h and the culture supernatant was tested for TNF content by ELISA.
(C) RAW264.7 cells were cultured overnight in the presence of FK866 and NAD levels were maintained by culturing the cells in the presence of extracellular NAD. Cells were then stimulated with LPS for 2 h and the culture supernatant was tested for TNF content by ELISA.
as §2, with “This example illustrates the correlation between proinflammatory cytokine secretion and NAD levels in the cell.” for “(A)”
as §3, with “In another experiment,” for “(B)”, “nicotinic acid. Nicotinic” for “nicotinic”, “is a precursor of NAD, but its transformation into NAD is not dependent upon NMPRT and is thus not inhibited by FK866.” for “(NA).”
In another experiment, RAW264.7 cells were cultured overnight in the presence of FK866 and NAD levels were maintained by culturing the cells in the presence: of extra-cellular NAD. Cells were then stimulated with LPS for 2 h and the culture supernatant was tested for TNF content by ELISA.

[5] = system: human monocyte-derived dendritic cells; test: Annexin-V and propidium iodide survival assay in dendritic cells; assay type: cell-based; conditions: overnight increasing doses of FK866, LPS 6 h, vs untreated cells
Protocol: (B) Human monocyte-derived dendritic cells were isolated and cultured overnight with increasing doses of FK866, and then stimulated with LPS for 6 h. At the end of the culture, the survival of cells was measured by Annexin-V and propidium iodide staining.
In another experiment, human monocyte-derived dendritic cells were isolated and cultured overnight with increasing doses of FK866, and then stimulated with LPS for 6 h.

[6] = system: Peritoneal exudates cells (PEC); test: Intracellular NAD in thioglycollate-elicited peritoneal exudate cells in vivo; set-up: species or system mouse
Protocol: Mice were treated with thioglycollate to elicit PEC, and then received 10 mg/kg FK866 by ip injection. PEC were obtained by lavage after different time points and intracellular NAD was determined. Data are mean±sem of 3 mice per group.
Mice were treated with thioglycollate to elicit PEC, and then received 10 mg/kg FK866 or placebo by ip injection 7 h before ip challenge with LPS. Mean serum TNFα at 90 min+sem of 3 mice per group is shown. PEC were obtained by lavage and intracellular NAD was determined. Data are mean±sem of 3 mice per group.
This example illustrates that FK866 reduces intracellular NAD level in inflammatory cells in vivo. Naïve mice were treated ip with thioglycollate to elicit inflammatory cells, and then FK866 was administered ip at 10 mg/kg. Peritoneal exudates cells (PEC) were obtained by lavage at different time points after treatment, and intracellular NAD levels were determined using an enzymatic assay.
This example illustrates that NAMPT inhibition reduces circulating TNFα during endotoxemia and correlates with diminished intracellular NAD in inflammatory cells. Naïve mice were treated ip with thioglycollate to elicit inflammatory cells, and then were treated ip with placebo or 10 mg/kg FK866 7 h before an intraperitoneal injection of LPS. Mice were bled 90 min later for evaluation of serum TNFα levels.

[7] = human dendritic cells from 5 donors, 20 nM FK866, LPS or LPS+IFNγ, 16 h

O=C(/C=C/c1cccnc1)NCCCCC1CCN(C(=O)c2ccccc2)CC1 [FK866, (E)-N-[4-(1-benzoylpiperidin-4-yl)butyl]-3-(pyridine-3-yl)-acrylamide]
cytokine secretion (TNF and IL-6) [1]: inhibited cytokine secretion in a dose-dependent fashion
IL-12 (p40 and p70) production [2, 7]: inhibited
IL-23 production [2, 7]: inhibited
TNFα production [2, 7]: inhibited
cytokine secretion (TNF and IL-6) ([2]; human monocyte-derived dendritic cells, overnight increasing doses of FK866, LPS 6 h): inhibited cytokine secretion in a dose-dependent fashion
TNFα mRNA levels (RAW264.7 cell line [3]): did not significantly affect
intracellular NAD levels (RAW264.7 cell line [4]): inhibition of intracellular NAD levels
survival of cells (Annexin-V and propidium iodide staining) [5]: no difference in survival
time of NAD nadir after injection ([6]; 10 mg/kg ip): 9 h
time of NAD recovery after injection ([6]; 10 mg/kg ip): around 14 h
intracellular NAD in PECs ([6]; 10 mg/kg ip 7 h before ip LPS, same mice, vs placebo): significant decrease
intracellular NAD in PEC (macrophages) in vivo ([6]; 10 mg/kg ip, lavage at different time points): significant time-dependent NAD depletion
